Data set [1] relates to human CRC HT-29 cells. Kind of data set: MTT cell viability / IC50 on HT-29 cells. The data set is classed as cell-based. Conditions: for IC50: MTT assay, 1 to 50 µM, mean ± SEM of at least three experiments; for viability at 50 µM: HT-29. On the procedure:
(§1) Cells were grown in DMEM medium for HT-29 cells and RPMI 1640 medium for HCT116 cells, supplemented with 10% FBS, 1% L-glutamine and 100 U/mL penicillin and 100 μg/mL streptomycin. Cultures were maintained in a humidified atmosphere containing 5% CO2 at 37 °C. Stock solutions of each compound were used at 10^−2 M in DMSO and then diluted in culture medium to obtain the appropriate final concentrations. […] L929 cell line is a non-cancer cell line derived from L-strain (L cells) and has been grown in the Peptinov laboratory for years. L929 cells are murine adherent fibroblasts from subcutaneous connective tissue (areolar and adipose tissues). Cells were grown in DMEM medium supplemented with 10% FBS, 1% L-glutamine and 100 U/mL penicillin and 100 µg/mL streptomycin and maintained in a humidified incubator at 37 °C, 5% CO2. When confluence is at 80%, cells are trypsinyzed for 3 min and diluted in fresh medium. Each batch of cells is kept for 15 passages before being discarded and a new batch thawed.
(§2) All compounds were tested on the metabolic activity of the cells using the MTT colorimetric assay. Briefly, cells were seeded in 96-well microplates at 8 × 10^3 cells/well for human CRC HT-29 cells and 5 × 10^3 cells/well for human CRC HCT116 cells and grown for 24 h in appropriate culture medium prior to exposure or not to compounds (6–27) with concentration ranges from 1 to 50 µM. After 48 h of treatment, MTT (5 g/L in Phosphate-buffered saline (PBS)) was added and incubated for another 3 h. The MTT was then removed from the wells and 100 µL/well of DMSO were added to dissolve formazan. The optical density was detected with a microplate reader (Thermoscientific, Multiskan FC) at 550 nm and cell viability was expressed as a percentage of each treatment condition compared to control cells. IC50 values were calculated for all compounds from the dose–response curve.

Data set [2] relates to human CRC HCT116 cells. Put plainly: MTT cell viability / IC50 on HCT116 cells. The data set is classed as cell-based. Conditions: for IC50: MTT assay, 1 to 50 µM, mean ± SEM of at least three experiments; for viability at 50 µM: HCT-116. The procedure:
as §1, §2

Setting [3] is: Homo sapiens, 50 µM, 48 h, MTT screening.
[4] abbreviates: concentrations up to 50 µM, 48 h.

Each structure is given as a SMILES string. Some results are limits rather than exact numbers.

What is called IC50 is the point on the concentration scale where inhibition reaches its midpoint. The term viability denotes a per cent measure of how many cells are alive, often set against a control. Higher therefore signals less harm to the cells.

As for `COc1ccc(C(=Cc2ccccc2)c2ccccn2)cc1` [Compound 6a, 2-(1-(4-méthoxyphenyl) -2-phenylvinyl) pyridine], the IC50 is 30.3 ± 1.78 µM in data set [1] (Homo sapiens, HT-29, 48 h) and 35.6 ± 2.08 µM in data set [2] (Homo sapiens, HCT-116, 48 h). Besides, the viability at 50 µM in data set [1] (setting [3]) and in data set [2] (setting [3]) was < 50% in each case.

With `COc1ccc(C(Oc2ccc(C)cc2)c2ccccn2)cc1` (stereo not shown) [Compound 18, 2-((4-methoxyphenyl)(p-tolyloxy)methyl)pyridine], the IC50 is > 50 µM in data set [1] (Homo sapiens, HT-29, 48 h) and > 50 µM in data set [2] (Homo sapiens, HCT-116, 48 h).

Regarding `COc1ccc(C(=Cc2ccc(O)cc2)c2ccccn2)cc1` [Compound 11b, 4-(2-(4-methoxyphenyl)-2-(pyridin-2-yl)vinyl)phenol], the IC50 was > 50 µM in data set [1] (Homo sapiens, HT-29, 48 h) and > 50 µM in data set [2] (Homo sapiens, HCT-116, 48 h).

As for `COc1ccc(C(Oc2ccc(Cl)cc2)c2ccccn2)cc1` (stereo not shown) [Compound 21, 2-((4-chlorophenoxy)(4-methoxyphenyl)methyl)pyridine], the IC50 in data set [1] (Homo sapiens, HT-29, 48 h) was > 50 µM; in data set [2] (Homo sapiens, HCT-116, 48 h), > 50 µM.

For the compound `COc1ccc(OC(c2ccc(OC)cc2)c2ccccn2)cc1` (stereo not shown) [Compound 19, 2-((4-methoxyphenoxy)(4-methoxyphenyl)methyl)pyridine], the IC50 in data set [1] (Homo sapiens, HT-29, 48 h) was > 50 µM; in data set [2] (Homo sapiens, HCT-116, 48 h), > 50 µM.

On to `COc1ccc(C(=Cc2ccc(F)cc2)c2ccccn2)cc1` [Compound 15b, 2-(2-(4-fluorophenyl)-1-(4-methoxyphenyl)vinyl)pyridine], for which the IC50 in data set [1] (48 h) and in data set [2] (48 h) was > 50 µM each time.

`COc1ccc(C(=Cc2ccc(Cl)cc2)c2ccccn2)cc1` [Compound 14a, 2-(2-(4-chlorophenyl)-1-(4-methoxyphenyl)vinyl)pyridine]: the IC50 in data set [1] (Homo sapiens, HT-29, 48 h) is < 30 µM; in data set [1] (48 h), 28.5 ± 1.82 µM; in data set [2] (Homo sapiens, HCT-116, 48 h) it was 42.7 ± 2.24 µM. Moreover, the viability at 50 µM in data set [1] (setting [3]) and in data set [2] (setting [3]) was < 50% each time.

Take `COc1ccc(C(=Cc2ccc(Br)cc2)c2ccccn2)cc1` [Compound 13b, 2-(2-(4-bromophenyl)-1-(4-methoxyphenyl)vinyl)pyridine]: the IC50 in data set [1] (48 h) was > 50 µM; in data set [2] (Homo sapiens, HCT-116, 48 h), < 35 µM; in data set [2] (48 h), 26.1 ± 2.08 µM. Moreover, in data set [2] (setting [3]), the viability at 50 µM is < 50%.

On to `COc1ccc(C(Oc2ccc(C(C)=O)cc2)c2ccccn2)cc1` (stereo not shown) [Compound 27, 1-(4-((4-methoxyphenyl)(pyridin-2-yl)methoxy)phenyl)ethanone], for which the IC50 in data set [1] (Homo sapiens, HT-29, 48 h) was > 50 µM; in data set [2] (Homo sapiens, HCT-116, 48 h) it was > 50 µM.

With `COc1ccc(C(Oc2ccc(C(F)(F)F)cc2)c2ccccn2)cc1` (stereo not shown) [Compound 24, 2-((4-methoxyphenyl)(4-(trifluoromethyl)phenoxy)methyl)pyridine], the IC50 in data set [1] (Homo sapiens, HT-29, 48 h) was > 50 µM; in data set [2] (Homo sapiens, HCT-116, 48 h), > 50 µM.

In the case of `COc1ccc(C(Oc2ccc(N(C)C)cc2)c2ccccn2)cc1` (stereo not shown) [Compound 26, 4-((4-methoxyphenyl)(pyridin-2-yl)methoxy)-N,N-dimethylaniline], the IC50 in data set [1] (Homo sapiens, HT-29, 48 h) is > 50 µM; in data set [2] (Homo sapiens, HCT-116, 48 h), > 50 µM.

In the case of `COc1ccc(C(=Cc2ccc(F)cc2)c2ccccn2)cc1` [Compound 15a, 2-(2-(4-fluorophenyl)-1-(4-methoxyphenyl)vinyl)pyridine], the half-inhibitory concentration (IC50) in data set [1] (Homo sapiens, HT-29, 48 h) was 43.43 ± 0.31 µM; in data set [2] (Homo sapiens, HCT-116, 48 h) it was > 50 µM. The viability at 50 µM in data set [1] (setting [3]) is < 50%.

For the compound `COc1ccc(C(=Cc2ccccc2)c2ccccn2)cc1` [Compound 6b, 2-(1-(4-méthoxyphenyl) -2-phenylvinyl) pyridine], the IC50 in data set [1] (48 h) and in data set [2] (48 h) was > 50 µM each time.

Consider `COc1ccc(C(Oc2ccc(C(C)(C)C)cc2)c2ccccn2)cc1` (stereo not shown) [Compound 20, 2-((4-(tert-butyl)phenoxy)(4-methoxyphenyl)methyl)pyridine], for which the IC50 was > 50 µM in data set [1] (Homo sapiens, HT-29, 48 h) and > 50 µM in data set [2] (Homo sapiens, HCT-116, 48 h).

Consider `COc1ccc(C=C(c2ccc(OC)cc2)c2ccccn2)cc1` [Compound 8a, 2-(1,2-bis(4-methoxyphenyl)vinyl)pyridine], for which the IC50 in data set [1] (Homo sapiens, HT-29, 48 h) was 43.5 ± 4.91 µM; in data set [2] (Homo sapiens, HCT-116, 48 h) it was > 50 µM. Further, the viability at 50 µM in data set [1] (setting [3]) was < 50%.

As for `COc1ccc(C(Oc2ccc(F)cc2)c2ccccn2)cc1` (stereo not shown) [Compound 23, 2-((4-fluorophenoxy)(4-methoxyphenyl)methyl)pyridine], the IC50 in data set [1] (Homo sapiens, HT-29, 48 h) is > 50 µM; in data set [2] (Homo sapiens, HCT-116, 48 h), > 50 µM.

On to `COc1ccc(C(=Cc2ccc(Br)cc2)c2ccccn2)cc1` [Compound 13a, 2-(2-(4-bromophenyl)-1-(4-methoxyphenyl)vinyl)pyridine], for which the viability at 50 µM in data set [1] (setting [3]) is < 50%. Besides, the IC50 stood at 24 ± 2.65 µM in data set [1] (48 h) and 36.6 ± 2.94 µM in data set [2] (48 h). Further, the “Cell viability (%) HCT116” value in data set [2] (50 µM, 48 h, MTT screening) is reported as < 50%.

In the case of `COc1ccc(C(=Cc2ccc(C)cc2)c2ccccn2)cc1` [Compound 7b, 2-(1-(4-methoxyphenyl)-2-(p-tolyl)vinyl)pyridine], the “Cell viability (%) HT-29” value in data set [1] (50 µM, 48 h, MTT screening) is listed as < 50%. The 50% inhibitory concentration (IC50) in data set [1] (48 h) was 36.2 ± 4.56 µM; in data set [2] (48 h) it was > 50 µM.

For the compound `COc1ccc(C(Oc2ccccc2)c2ccccn2)cc1` (stereo not shown) [Compound 17, 2-((4-methoxyphenyl)(phenoxy)methyl)pyridine], the IC50 is > 50 µM in data set [1] (Homo sapiens, HT-29, 48 h) and > 50 µM in data set [2] (Homo sapiens, HCT-116, 48 h).

On to `COc1ccc(C(=Cc2ccc(C)cc2)c2ccccn2)cc1` [Compound 7a, 2-(1-(4-methoxyphenyl)-2-(p-tolyl)vinyl)pyridine], for which the IC50 was 35 ± 1.99 µM in data set [1] (Homo sapiens, HT-29, 48 h) and > 50 µM in data set [2] (Homo sapiens, HCT-116, 48 h). Besides, the viability at 50 µM in data set [1] (setting [3]) is < 50%.

Consider `COc1ccc(C(=Cc2ccc(C(C)C)cc2)c2ccccn2)cc1` [Compound 9a, 2-(2-(4-isopropylphenyl)-1-(4-methoxyphenyl)vinyl)pyridine], for which the IC50 in data set [1] (48 h) and in data set [2] (48 h) was > 50 µM in each case.

For the compound `COc1ccc(C(Oc2ccc(Br)cc2)c2ccccn2)cc1` (stereo not shown) [Compound 22, 2-((4-bromophenoxy)(4-methoxyphenyl)methyl)pyridine], the IC50 was 37.9 ± 1.87 µM in data set [1] (Homo sapiens, HT-29, 48 h) and 41.5 ± 1.48 µM in data set [2] (Homo sapiens, HCT-116, 48 h). Also, the viability at 50 µM in data set [1] (setting [3]) and in data set [2] (setting [3]) was < 50% throughout. Moreover, the “antiproliferative activity HT-29 (in words)” value in data set [1] (setting [4]) was “potential antiproliferative activity”. Moreover, in data set [2] (setting [4]), the “antiproliferative activity HCT116 (in words)” value is on record as “potential antiproliferative activity”.

In the case of `COc1ccc(C(=Cc2ccc(C(F)(F)F)cc2)c2ccccn2)cc1` [Compound 12b, 2-(1-(4-methoxyphenyl)-2-(4-(trifluoromethyl)phenyl)vinyl)pyridine], the IC50 in data set [1] (48 h) and in data set [2] (48 h) was > 50 µM each time.

With `COc1ccc(C(=Cc2ccc(C(C)C)cc2)c2ccccn2)cc1` [Compound 9b, 2-(2-(4-isopropylphenyl)-1-(4-methoxyphenyl)vinyl)pyridine], the IC50 in data set [1] (Homo sapiens, HT-29, 48 h) was 34.9 ± 0.78 µM; in data set [2] (Homo sapiens, HCT-116, 48 h), > 50 µM. For the same compound, in data set [1] (setting [3]), the viability at 50 µM is < 50%.

`COc1ccc(C(=Cc2ccc(Cl)cc2)c2ccccn2)cc1` [Compound 14b, 2-(2-(4-chlorophenyl)-1-(4-methoxyphenyl)vinyl)pyridine]: the IC50 in data set [1] (48 h) and in data set [2] (48 h) was > 50 µM throughout.

Turning to `COc1ccc(C(Oc2ccc([N+](=O)[O-])cc2)c2ccccn2)cc1` (stereo not shown) [Compound 25, 2-((4-methoxyphenyl)(4-nitrophenoxy)methyl)pyridine], the half-maximal inhibitory concentration (IC50) in data set [1] (Homo sapiens, HT-29, 48 h) was > 50 µM; in data set [2] (Homo sapiens, HCT-116, 48 h), > 50 µM.
